Several values for one entry are separate records, joined by “and”; a condition that tells them apart may be missing. Identical values can stand only once. One block for each molecule: values may come before it.
Experiments:
beta-TC6 cells = test: Insulin HTRF assay on beta-TC6 supernatant (relative activity Ar); format: cell-based, mouse; conditions: group I
Text: For further screening of compounds derived from compounds described above for their ability to regulate insulin release an insulin HTRF® (Homogeneous Time-Resolved Fluorescence; Cisbio International, France) was used. This assay is based on two antibodies against insulin binding to different epitopes of insulin. One of these antibodies is coupled to Europium (Ab-Eu-Cryptate) and the other one to the fluorophore XL665 (Ab-XL665). If the insulin is secreted into the supernatant of cell culture, both antibodies can bind to insulin and come therefore into close proximity, which allows upon excitation that energy transfer between (FRET) the long-life fluorescent donor Europium (cryptate) and the acceptors XL665. FRET increases proportionally with insulin concentration.
On day 1, 15 k beta-TC6 cells per well were seeded for 24 or 48 h in 50 μL complete medium. On day 2 or respective on day 3, the medium is removed and cells are washed with 60 μL 1×PBS and 20 μL induction buffer is added using BioTek washer. Subsequently, 10 μL Sunitininb (5-μM f.c.) or the test compound in induction buffer; 0.5% f.c. DMSO (CyBi-well) is transferred to the cells. The cells are then incubated at 37° C. for 2, 3, 4 h. […]
First 10 μL supernatant is transferred from the cell plates in HTRF plates (CyBi-well). […] Finally HTRF is measured on ViewLux ultra high throughput microplate imager (PerkinElmer). […]

3T3-L1 pre-adipocytes = test: 2-NBDG uptake in 3T3-L1 pre-adipocytes; format: cell-based
GRK5 = target: T1, GRK5 (Homo sapiens, UniProt P34947); test: Millipore KinaseProfiler radiometric filtration binding assay; format: biochemical; conditions: group II; Millipore KinaseProfiler (Table 10)
T1 construct: purchased Millipore (KinaseProfiler service)
Experimental: (§1) As alternative, IC50 values are determined by a radiometric based filtration binding assay, namely Millipore KinaseProfiler™. GRK5 is incubated with 8 mM MOPS pH7.0, 0.2 mM EDTA, 2 mg/mL casein, 10 mM MgAcetate and […] (specific activity approx. 500 cpm/pmol, concentration as required). The reaction is initiated by the addition of the MgATP mix. After incubation for 40 minutes at room temperature, the reaction is stopped by the addition of 3% phosphoric acid solution. 10 μL of the reaction is then spotted onto a P30 filtermat and washed three times for 5 minutes in 75 mM phosphoric acid and once in methanol prior to drying and scintillation counting.
as §1, with “IC50” for “As alternative, IC50”, “pH 7.0,” for “pH7.0,”

full length GRK5 = target: T2, full length GRK5 (Homo sapiens, UniProt P34947); test: GRK5 kinase activity assay, ADP Glo Kinase Assay technology (Promega); format: biochemical
T2 construct: 6/2 fold concentrated full length GRK5 (Millipore, #14-714) in reaction buffer; purchased Millipore 14-714
Method in brief: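 Casein (10 μM) phosphorylation with 100 μM ATP in 20 mM MES pH 6.0, 1 mM DTT, 10 mM MgCl2, 0.01% Tween20, 120 min at room temperature; ADP quantified by ADP-Glo luminescence.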

C2C12 cells [1] = test: Cell viability assay (CellTiter-Glo / automated cell number) in C2C12; format: cell-based; conditions: Mus musculus, read-out: Inhibition of cell viability IC50
Method in brief: (§2)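 ATP read by CellTiter-Glo luminescence after 10 min lysis at RT. Imaging variant: 10000 cells/well treated 72 h, then fixed and stained with Hoechst 33342 (20 μg/ml, 30 min, 37 °C). Nuclei counted automatically over six fields at 10×, compared with untreated controls, giving IC50.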

HepG2 cells = test: Cell viability assay (CellTiter-Glo / automated cell number) in HepG2; format: cell-based; conditions: Homo sapiens, read-out: Inhibition of cell viability IC50
Method in brief: as §2

3T3-L1 cells = test: Cell viability assay (CellTiter-Glo / automated cell number) in 3T3-L1; format: cell-based; conditions: Mus musculus, read-out: Inhibition of cell viability IC50
Method in brief: as §2

C2C12 cells [2] = test: 2-NBDG glucose uptake in C2C12 cells (flow cytometry); format: cell-based, mouse; conditions: for 2-NBDG Glucose Uptake [%]: group II, at 5 μM, 1 h, 100 μM 2-NBDG
Experimental: (§3) 2-NBDG is a fluorescently-labeled deoxyglucose analog that is commonly used to directly monitor glucose uptake by living cells. For 2-NBDG detection, cells were cultured for 1 h together with 5 μM of a small molecule in glucose free media supplied with 100 μM 2-NBDG at 37° C. before collecting. Furthermore, as internal controls, samples of glucose free media, rFc4espectively glucose free media with test compound, were tested. Subsequently, cells were washed, trypsinized and harvested in ice-cold PBS before centrifuged at 1.6×10^3 rpm at 4° C. Cells were analyzed by flow cytometry (FACS Calibur, BD Bioscience, respectively a BD Accuri® C6 Flow Cytometer).
as §3, with “an inventive compound” for “a small molecule”, “media,” for “media, rFc4espectively”, “compound, respectively glucose free media supplied with 100 μM 2-NBDG” for “compound,”

beta TC6 cells [3] = test: Cell viability assay (CellTiter-Glo / automated cell number) in beta TC6; format: cell-based; conditions: Mus musculus, read-out: Inhibition of cell viability IC50
Method in brief: as §2

[4] = system: beta-TC6 insulinoma cells; test: Insulin release by beta-TC6 cells, rat/mouse insulin ELISA, high glucose; format: cell-based
Experimental: (§4) Release of insulin was detected using a rat/mouse insulin ELISA.
After incubation, the supernatant of the beta-TC6 insulinoma cells was diluted 1:20. The insulin release was measured with rat/mouse insulin ELISA (Merck Millipore Darmstadt, Cat. # EZRMI-13K) by following the manufacture protocol. The enzyme activity of the horseradish peroxidase of the immobilized biotinylated antibodies was monitored spectrophotometrically by the increased absorbency at 490 nm, and corrected by the absorbency at 610 nm.
as §4
The effect on the insulin release of each kinase depletion was monitored by using a rat/mouse insulin ELISA.
For the validation of the negative modulating kinases SCYL1, GRK5, and ADCK1, the target genes were depleted using four different siRNA-sequences each (FIG. 2A-D). The gene-depletion was measured via mRNA-levels after 72 hours while the insulin release was measured using a rat/mouse insulin ELISA after two hours incubation.

beta TC6 cells [5] = test: 2-NBDG uptake in beta TC6 cells; format: cell-based, mouse; conditions: n = 3, FIG. 18
3T3-L1 adipocytes = test: 2-NBDG uptake in matured 3T3-L1 adipocytes; format: cell-based; conditions: relative to DMSO = 1; n = 2
Text: (§5) Inhibition of GRK5 led to an increased uptake of the fluorescent glucose analogue 2-NBDG in matured C2C12 myotubes (FIG. 20) and 3T3-L1 adipocytes (FIG. 21) for all five compounds (summarized in table 7). In line with C2C12 cells, the matured myotubes display an increase 2-NBDG uptake after inhibition of GRK5 by compounds 1-5.

matured C2C12 myotubes = test: 2-NBDG uptake in matured C2C12 myotubes; format: cell-based, mouse; conditions: relative to DMSO = 1; n = 2
Text: as §5

T2 sequence (P34947 whole entry): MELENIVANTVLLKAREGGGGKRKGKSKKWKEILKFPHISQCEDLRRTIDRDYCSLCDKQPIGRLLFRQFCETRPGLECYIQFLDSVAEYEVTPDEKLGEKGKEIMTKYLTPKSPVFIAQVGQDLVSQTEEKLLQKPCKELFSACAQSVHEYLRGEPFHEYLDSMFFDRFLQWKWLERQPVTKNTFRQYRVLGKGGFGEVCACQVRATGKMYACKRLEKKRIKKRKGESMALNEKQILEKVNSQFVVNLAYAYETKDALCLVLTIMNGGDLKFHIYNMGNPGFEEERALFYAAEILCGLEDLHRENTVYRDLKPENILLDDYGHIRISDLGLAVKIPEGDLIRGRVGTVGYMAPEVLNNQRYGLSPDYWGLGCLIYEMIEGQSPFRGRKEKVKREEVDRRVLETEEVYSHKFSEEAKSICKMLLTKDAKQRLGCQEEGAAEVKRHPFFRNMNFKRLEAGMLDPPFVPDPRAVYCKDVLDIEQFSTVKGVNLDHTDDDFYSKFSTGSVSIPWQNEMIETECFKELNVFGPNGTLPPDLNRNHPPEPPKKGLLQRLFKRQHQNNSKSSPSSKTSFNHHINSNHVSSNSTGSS
T1 sequence (P34947 whole entry): as above

SMILES: COc1cc(Nc2nccc3c2cc(-c2ccc(C(=O)N(C)C)cc2)n3C)cc(C(F)(F)F)c1 [compound 220, N,N-dimethyl-4-[1-methyl-4-(3-methoxy-5-(trifuloromethyl)phenylamino)pyrrolo[3,2-c]pyridin-2-yl]benzamide]
- Ar (relative activity) (beta-TC6 cells): + (0% < Ar < 30%)

SMILES: Nc1cccc(-c2cc3cnc(Nc4cccnc4)cc3[nH]2)c1 [compound 2, 2-(3-aminophenyl)-N-(3-pyridyl)-1H-pyrrolo[3,2-c]pyridin-6-amine]
- Glucose uptake (2-NBDG) in 3T3-L1 pre-adipocytes (3T3-L1 pre-adipocytes; GRK5 screen compounds): stimulated

- IC50 (GRK5): 100 to 1000 nM
- IC50 (full length GRK5; group II, ADP Glo Kinase Assay (Table 9-B)): 100 to 1000 nM
- IC50 (HepG2 cells): 890 nM
SMILES: C[C@@H](NC(=O)c1ccc2c(c1)/C(=C/Nc1ccc(CN3CCCCC3)cc1)C(=O)N2)c1ccc(Cl)cc1 [II.73, (3Z)-N-[(1R)-1-(4-chlorophenyl)ethyl]-2-oxo-3-({[4-(piperidin-1-ylmethyl)phenyl]amino}methylene)indoline-5-carboxamide]
- IC50 (C2C12 cells [1]): 2330 nM
- IC50 (3T3-L1 cells): 2730 nM
- 2-NBDG Glucose Uptake [%] (C2C12 cells [2]): 127%
- IC50 (beta TC6 cells [3]): 730 nM

SMILES: CS(=O)(=O)c1ccc(Nc2nccc3[nH]c(-c4ccccc4)cc23)cc1 [compound 324, N-(4-methylsulfonylphenyl)-2-phenyl-1H-pyrrolo[3,2-c]pyridin-4-annine]
- Ar (relative activity) (beta-TC6 cells): +++ (50% ≦ Ar < 100%)

- Inhibition of Grk5 [%] (full length GRK5; primary screen, final assay concentration 100 μM): 60.0%
SMILES: Nc1cccc(-c2cc3cnc(Nc4cccnc4)cc3[nH]2)c1 [C2]
- Insulin release (average, relative to DMSO = 1) ([4]; beta-TC6, 5 μM): 2.58±0.94 and 2.58
- Insulin release (average, relative to DMSO = 1) ([4]; beta-TC6, 10 μM): 2.01±0.19 and 2.01
- 2-NBDG glucose uptake, Ratio (average, DMSO = 1) (beta TC6 cells [5]): 1.529
- 2-NBDG uptake Ratio, 3T3-L1 adipocytes matured (3T3-L1 adipocytes): 2.234
- 2-NBDG uptake Ratio, C2C12 myotubes matured (matured C2C12 myotubes): 2.383
- 2-NBDG glucose uptake, Ratio (average, DMSO = 1) (C2C12 cells [2]; C2C12 cells, n = 3, FIG. 17): 2.127
- 2-NBDG glucose uptake, Ratio (average, DMSO = 1) (3T3-L1 pre-adipocytes; 3T3-L1 pre-adipocytes, n = 3, FIG. 19): 1.111

SMILES: C[C@@H](NC(=O)c1ccc2c(c1)/C(=C/c1ccc(C(=O)N3CCN(C)CC3)cc1)C(=O)N2)c1ccccc1 [II.143, (3Z)-3-[4-(4-methyl-piperazine-1-carbonyl)-benzylidene]-2-oxo-2,3-dihydro-1H-indole-5-carboxylic acid (1R)-(1-phenyl-ethyl)-amide]
- 2-NBDG Glucose Uptake [%] (C2C12 cells [2]): 72%
